Values joined by “and” are separate entries in the source; they are usually repeats but may differ in a detail not shown here. Equal entries are not always repeated. Structures can show the parent of a compound that is named as a salt. Values belong to the compound of their own block, whether it stands above or below them.
Test system: HMOX1 in Normal Human Lung Fibroblasts (NHLF)
Experiment: HMOX1 Protein Expression (immunostaining, fold induction or % positive cells over DMSO)
Conditions: for % Cells Positive HMOX: Cpd. 0 uM
[1] = Homo sapiens, Fibroblast, read-out: Fold Induction of HMOX

Fold Induction of HMOX (HPP-A 0.019 uM, Bardoxolone Methyl 0 uM): 0.97 fold | Fold Induction of HMOX (HPP-A 0.019 uM, Bardoxolone Methyl 0.0024 uM): 3.24 fold | Fold Induction of HMOX (HPP-A 0.019 uM, Bardoxolone Methyl 0.0048 uM): 2.88 fold | Fold Induction of HMOX (HPP-A 0.019 uM, Bardoxolone Methyl 0.0097 uM): 7.14 fold | Fold Induction of HMOX (HPP-A 0.019 uM, Bardoxolone Methyl 0.039 uM): 15.87 fold | Fold Induction of HMOX (HPP-A 0.019 uM, Bardoxolone Methyl 0.078 uM): 22.27 fold | Fold Induction of HMOX (HPP-A 0.019 uM, Bardoxolone Methyl 0.156 uM): 22.90 fold | Fold Induction of HMOX (HPP-A 0.019 uM, Bardoxolone Methyl 0.312 uM): 17.20 fold | Fold Induction of HMOX (HPP-A 0.039 uM, Bardoxolone Methyl 0 uM): 1.09 fold | Fold Induction of HMOX (HPP-A 0.039 uM, Bardoxolone Methyl 0.0024 uM): 2.32 fold | Fold Induction of HMOX (HPP-A 0.039 uM, Bardoxolone Methyl 0.0048 uM): 3.04 fold | Fold Induction of HMOX (HPP-A 0.039 uM, Bardoxolone Methyl 0.0097 uM): 5.31 fold | Fold Induction of HMOX (HPP-A 0.039 uM, Bardoxolone Methyl 0.019 uM): 8.57 fold | Fold Induction of HMOX (HPP-A 0.039 uM, Bardoxolone Methyl 0.078 uM): 18.69 fold | Fold Induction of HMOX (HPP-A 0.039 uM, Bardoxolone Methyl 0.156 uM): 17.24 fold | Fold Induction of HMOX (HPP-A 0.039 uM, Bardoxolone Methyl 0.312 uM): 17.44 fold | Fold Induction of HMOX (HPP-A 0.078 uM, Bardoxolone Methyl 0 uM): 1.92 fold | Fold Induction of HMOX (HPP-A 0.078 uM, Bardoxolone Methyl 0.0024 uM): 4.25 fold | Fold Induction of HMOX (HPP-A 0.078 uM, Bardoxolone Methyl 0.0048 uM): 4.72 fold | Fold Induction of HMOX (HPP-A 0.078 uM, Bardoxolone Methyl 0.0097 uM): 8.43 fold | Fold Induction of HMOX (HPP-A 0.078 uM, Bardoxolone Methyl 0.019 uM): 13.21 fold | Fold Induction of HMOX (HPP-A 0.078 uM, Bardoxolone Methyl 0.039 uM): 17.81 fold | Fold Induction of HMOX (HPP-A 0.078 uM, Bardoxolone Methyl 0.156 uM): 17.88 fold | Fold Induction of HMOX (HPP-A 0.078 uM, Bardoxolone Methyl 0.312 uM): 15.33 fold | Fold Induction of HMOX (HPP-A 0.156 uM, Bardoxolone Methyl 0 uM): 3.46 fold | Fold Induction of HMOX (HPP-A 0.156 uM, Bardoxolone Methyl 0.0024 uM): 7.32 fold | Fold Induction of HMOX (HPP-A 0.156 uM, Bardoxolone Methyl 0.0048 uM): 8.04 fold | Fold Induction of HMOX (HPP-A 0.156 uM, Bardoxolone Methyl 0.0097 uM): 12.05 fold | Fold Induction of HMOX (HPP-A 0.156 uM, Bardoxolone Methyl 0.019 uM): 15.95 fold | Fold Induction of HMOX (HPP-A 0.156 uM, Bardoxolone Methyl 0.039 uM): 17.59 fold | Fold Induction of HMOX (HPP-A 0.156 uM, Bardoxolone Methyl 0.078 uM): 18.44 fold | Fold Induction of HMOX (HPP-A 0.156 uM, Bardoxolone Methyl 0.312 uM): 15.98 fold | Fold Induction of HMOX (HPP-A 0.312 uM, Bardoxolone Methyl 0 uM): 9.82 fold | Fold Induction of HMOX (HPP-A 0.312 uM, Bardoxolone Methyl 0.0024 uM): 11.67 fold | Fold Induction of HMOX (HPP-A 0.312 uM, Bardoxolone Methyl 0.0048 uM): 13.59 fold | Fold Induction of HMOX (HPP-A 0.312 uM, Bardoxolone Methyl 0.0097 uM): 16.45 fold | Fold Induction of HMOX (HPP-A 0.312 uM, Bardoxolone Methyl 0.019 uM): 17.74 fold | Fold Induction of HMOX (HPP-A 0.312 uM, Bardoxolone Methyl 0.039 uM): 19.61 fold | Fold Induction of HMOX (HPP-A 0.312 uM, Bardoxolone Methyl 0.078 uM): 21.13 fold | Fold Induction of HMOX (HPP-A 0.312 uM, Bardoxolone Methyl 0.156 uM): 19.21 fold | Fold Induction of HMOX (HPP-A 0.625 uM, Bardoxolone Methyl 0 uM): 15.00 fold | Fold Induction of HMOX (HPP-A 0.625 uM, Bardoxolone Methyl 0.0024 uM): 15.70 fold | Fold Induction of HMOX (HPP-A 0.625 uM, Bardoxolone Methyl 0.0048 uM): 17.10 fold | Fold Induction of HMOX (HPP-A 0.625 uM, Bardoxolone Methyl 0.0097 uM): 17.18 fold | Fold Induction of HMOX (HPP-A 0.625 uM, Bardoxolone Methyl 0.019 uM): 16.84 fold | Fold Induction of HMOX (HPP-A 0.625 uM, Bardoxolone Methyl 0.039 uM): 17.24 fold | Fold Induction of HMOX (HPP-A 0.625 uM, Bardoxolone Methyl 0.078 uM): 18.60 fold | Fold Induction of HMOX (HPP-A 0.625 uM, Bardoxolone Methyl 0.156 uM): 18.68 fold | Fold Induction of HMOX (HPP-A 0.625 uM, Bardoxolone Methyl 0.312 uM): 12.69 fold | Fold Induction of HMOX (HPP-A 1.25 uM, Bardoxolone Methyl 0 uM): 16.17 fold | Fold Induction of HMOX (HPP-A 1.25 uM, Bardoxolone Methyl 0.0024 uM): 16.12 fold | Fold Induction of HMOX (HPP-A 1.25 uM, Bardoxolone Methyl 0.0048 uM): 17.26 fold | Fold Induction of HMOX (HPP-A 1.25 uM, Bardoxolone Methyl 0.0097 uM): 16.49 fold | Fold Induction of HMOX (HPP-A 1.25 uM, Bardoxolone Methyl 0.019 uM): 15.93 fold | Fold Induction of HMOX (HPP-A 1.25 uM, Bardoxolone Methyl 0.039 uM): 15.63 fold | Fold Induction of HMOX (HPP-A 1.25 uM, Bardoxolone Methyl 0.078 uM): 15.15 fold | Fold Induction of HMOX (HPP-A 1.25 uM, Bardoxolone Methyl 0.156 uM): 16.65 fold | Fold Induction of HMOX (HPP-A 1.25 uM, Bardoxolone Methyl 0.312 uM): 10.53 fold | Fold Induction of HMOX (HPP-A 2.5 uM, Bardoxolone Methyl 0 uM): 17.48 fold | Fold Induction of HMOX (HPP-A 2.5 uM, Bardoxolone Methyl 0.0024 uM): 18.81 fold | Fold Induction of HMOX (HPP-A 2.5 uM, Bardoxolone Methyl 0.0048 uM): 19.48 fold | Fold Induction of HMOX (HPP-A 2.5 uM, Bardoxolone Methyl 0.0097 uM): 19.42 fold | Fold Induction of HMOX (HPP-A 2.5 uM, Bardoxolone Methyl 0.019 uM): 17.04 fold | Fold Induction of HMOX (HPP-A 2.5 uM, Bardoxolone Methyl 0.039 uM): 14.71 fold | Fold Induction of HMOX (HPP-A 2.5 uM, Bardoxolone Methyl 0.078 uM): 14.33 fold | Fold Induction of HMOX (HPP-A 2.5 uM, Bardoxolone Methyl 0.156 uM): 12.49 fold | Fold Induction of HMOX (HPP-A 5 uM, Bardoxolone Methyl 0 uM): 17.72 fold | maximum HMOX1 fold induction (HPP-A alone, concentrations greater than or equal to 2500 nM): 18 fold
Structure (SMILES): CNC(=O)c1ccc2c(c1)nc(Nc1nc3ccc(OC(F)(F)F)cc3s1)n2C [HPP-A, 1-Methyl-2-(6-trifluoromethoxy-benzothiazol-2-ylamino)-1H-benzoimidazole-5-carboxylic acid methyl amide]
increase HMOX1 (FIG. 1 bar A) (156 nM HPP-A alone): 3.5 fold | combined effect on HMOX induction (FIG. 1 bar C) (156 nM HPP-A combined with 9.7 nM CDDO-Me): greater than additive | fold induction at 0.019 µM [1]: 10 | fold induction at 0.039 µM [1]: 14.7 | fold induction at 0.078 µM [1]: 19.5 | fold induction at 0.156 µM [1]: 18.3 | fold induction at 0.312 µM [1]: 17.4

Structure (SMILES): COC(=O)/C=C/C(=O)OC [DMF, dimethyl fumarate, reference compound]
Hill slope of DMF dose response curves in Table 2 (Bach1 Inhibitor Conc. 0 uM, % Positive HMOX): 1.25 and 1.26 | % Cells Positive HMOX (DMF 0.03 uM): 1.71% | % Cells Positive HMOX (DMF 0.1 uM): 1.21% | % Cells Positive HMOX (DMF 0.3 uM): 2.47% | % Cells Positive HMOX (DMF 1 uM): 4.38% | % Cells Positive HMOX (DMF 3 uM): 41.58% | % Cells Positive HMOX (DMF 10 uM): 74.35% | % Cells Positive HMOX (DMF 30 uM): 84.56% | fold induction at 0.03 µM [1]: 1.04 | fold induction at 0.1 µM [1]: 1.06 | fold induction at 0.3 µM [1]: 1.14 | fold induction at 1 µM [1]: 1.39 | fold induction at 3 µM [1]: 2.76 | fold induction at 10 µM [1]: 4.45 | fold induction at 30 µM [1]: 6.19

Source: patent publication US10898475B2, “Bach1 inhibitors in combination with Nrf2 activators and pharmaceutical compositions thereof” (vTv Therapeutics LLC, priority 2014, dated 2021)
